In patent publication US20140272065A1, “ORGANIC COMPOUNDS” (Givaudan S.A., priority 2011, published 2014):

Columns and labels:
[1] = background statement, cited from earlier work; for umami taste: aspartic acid at concentrations comparable to MSG
[2] = Flavourist tasting: umami and salt intensity of solution B versus reference solution A; format: in vivo; details: scale -3 (much lower than base) to 3 (much higher), average of 4 flavourists
Description: The samples were tasted by a small group of flavourists (2 male, 2 female, aged between 30 and 60). The intensity of the umami and salt taste of solution B was compared with that of the reference (solution A) and rated according to the following intensity scale: […]

[3] = Flavourist comparison of test bouillon with reference bouillon; format: in vivo; details: 200 ppm in bouillon; 4 flavourists
Experimental: A bouillon mix was prepared from 155.0 g of sodium chloride, 157.0 g of dextrose monohydrate (ex Tapioca), 0.2 g of celery oleoresin, 0.3 g of oleoresin turmeric Vegex, 0.2 g of oleoresin coriander seed, 444.8 g maltodextrin 5-8 DE, 40.0 g vegetable oil soya bean refined, 30.0 g yeast standard light, 4.0 g of onion powder, 4.0 g of garlic powder, 0.5 g of white pepper and 164.0 g of potato starch.
32 g of the well-mixed ingredients was added to 1 L of boiling water and stirred until completely dissolved.

[4] = Flavourist comparison of test white sauce with reference white sauce; format: in vivo; details: 4 flavourists
Experimental: A white sauce mix was prepared from 380 g of modified starch Prejel, 200 g of whey powder Esprion 300, 200 g of fat powder (ex DMV), 115 g of sodium chloride, 85.3 g of maltodextrin 14, 3 g of onion powder, 0.2 g of curcuma extract powder (ex turmeric), 1.5 g of white pepper and 15 g of probase high impact.
80 g of the well-mixed ingredients was added to 1 L of boiling water and stirred well.

[5] = Flavourist tasting: enhancement effect on NaCl, MSG and ribonucleotides; format: in vivo; details: effect marked between 0 and 10
Experimental: Six solutions were prepared: • A a solution of 0.5% NaCl • B a solution of 0.5% NaCl and 0.03% MSG • C a solution of 0.5% NaCl and 0.015% ribonucleotides • D a solution of 0.5% NaCl and 10-50 ppm Example 1 compound • E a solution of 0.5% NaCl and 0.03% MSG and 10-50 ppm Example 1 compound • F a solution of 0.5% NaCl and 0.015% ribonucleotides and 10-50 ppm Example 1 compound The samples were tasted by a group of 5-10 flavourists aged between 30 and 60. The taste of solution D is compared with that of A to determine the enhancement effect of Example 1 compound on NaCl. Similarly, solution E is compared with solution B and solution F with solution C to determine the enhancement effect of Example 1 compound on MSG and ribonucleotides respectively. The effect is marked between 0 and 10, the greater the value the greater the effect.

[6] = Flavourist comparison of test Béchamel sauce with cheese with reference sauce; format: in vivo; details: 4 flavourists
Experimental: A Béchamel sauce with cheese was prepared from 70 g of butter, 50 g of flower, 1000 g of milk, 5 g of sodium chloride, 0.3 g of MSG, 0.15 g of nutmeg powder, 0.25 g of black pepper and 80 g of cheese powder. A blanc roux was prepared from the butter and flower before adding the other ingredients.

[7] = 10 ppm in 0.5% NaCl and 0.03% MSG
[8] = 20 ppm in 0.5% NaCl and 0.03% MSG

## [Cl][Pb][Cl] [Lead chloride]
[1]
  taste of salts compared with sodium chloride: tasting sweet

## NC(CC(O)C(=O)O)C(=O)O (centres unmarked) [4-hydroxyglutamic acid, 4-hydroxyglutamic Acid]
[2]; [7]
  Intensity Taste Salt (NaCl): 0.50
  Intensity Taste Umami: 0.50
[3]
  taste of test bouillon compared with reference bouillon: had an enhanced body of salt and was more salivating and more savoury-lingering than the reference bouillon
[4]; 300 ppm in white sauce
  taste of test white sauce compared with reference white sauce: had an enhanced body of salt and was more salivating and umami-like than the reference white sauce
[5]; 50 ppm in 0.5% NaCl (solution D versus A, reference 0.0)
  NaCl Taste: 1.7
[5]; 50 ppm in 0.5% NaCl and 0.015% ribonucleotides (solution F versus C, reference 5.0)
  Ribo taste: 7.0
[5]; 50 ppm in 0.5% NaCl and 0.03% MSG (solution E versus B, reference 5.0)
  MSG taste: 5.7
[6]; 400 ppm in Béchamel sauce with cheese
  taste of test Béchamel sauce with cheese compared with reference: had more body, more mouthfullness and was creamier than the reference Béchamel sauce

## N[C@@H](CC(=O)O)C(=O)O [aspartic acid]
[1]
  umami taste: hardly any umami taste

## NC(CC(C(=O)O)C(=O)O)C(=O)O (racemic) [gamma-carboxy-DL-glutamic acid, Gamma-Carboxy-DL-Glutamic Acid]
[2]; [7]
  Intensity Taste Salt (NaCl): 0.67
  Intensity Taste Umami: 0.67
[3]
  taste of test bouillon compared with reference bouillon: more umami, slightly more bitter, had more an ionic effect and salivating aftertaste than the reference bouillon
[4]; 250 ppm in white sauce
  taste of test white sauce compared with reference white sauce: more umami, more metallic, fuller, more long-lasting and slightly more salivating than the reference white sauce
[5]; 10 ppm in 0.5% NaCl (solution D versus A, reference 0.0)
  NaCl Taste: 2.0
[5]; 10 ppm in 0.5% NaCl and 0.015% ribonucleotides (solution F versus C, reference 5.0)
  Ribo taste: 5.5
[5]; 10 ppm in 0.5% NaCl and 0.03% MSG (solution E versus B, reference 5.0)
  MSG taste: 5.5
[6]; 350 ppm in Béchamel sauce with cheese
  taste of test Béchamel sauce with cheese compared with reference: more metallic, more ionic, more long-lasting and had more salivating effect than the reference Béchamel sauce

## O=C([O-])[C@H](O)[C@@H](O)[C@H](O)[C@H](O)CO.[Na+] [sodium gluconate]
[1]
  taste of salts compared with sodium chloride: hardly any taste

## CC(=O)[O-].[Na+] [Sodium acetate]
[1]
  taste of salts compared with sodium chloride: hardly any taste

## CC(CC(N)C(=O)O)C(=O)O (centres unmarked) [2-amino-4-methylpentanedioic acid, 2-amino-4-methylpentanedioic Acid]
[2]; [8]
  Intensity Taste Salt (NaCl): 1.00
  Intensity Taste Umami: 1.25

## N[C@@H](CCC(=O)O)C(=O)[O-].[Na+] [MSG, monosodium glutamate]
[1]
  umami taste: highly potent umami tastant

## [Cl-].[K+] [Potassium chloride]
[1]
  taste of salts compared with sodium chloride: somewhat salty but clearly more bitter

## Cl.NC(CC(C(=O)O)c1ccccc1)C(=O)O (centres unmarked) [2-amino-4-phenylpentanedioic acid, HCl, 2-amino-4-phenylpentanedioic Acid, HCl]
[2]; [7]
  Intensity Taste Salt (NaCl): 0.67
  Intensity Taste Umami: 0.00
